From US7666454B2, “Cosmetic composition comprising an essential oil extracted from Helichrysum italicum” (L'Occitane, priority 2001, dated 2010) come the findings set out here.

Usually inhibition stands for the drop in the measured response relative to a control, in per cent.

For this test, the system named is human endothelial cells in co-culture (AngioKit). Nature of the test: AngioKit in vitro angiogenesis model (tubule formation, CD31 staining, image analysis). The test is classed as cell-based. The method, then:
The in vitro model we used was the AngioKit (Biopredic—ref ZHA-1000—lot no. 25173T) which approaches a more global vision of angiogenesis. In this model, human endothelial cells are seeded in a specific medium in co-culture with another type of human cells. In the initial phase, the endothelial cells form small islets. They begin to proliferate and then enter into a migration phase which leads to formation of structures of filamentous tubule form in the matrix. At the end of 10 to 12 days, the connections established form a network of anastomosed tubules. The staining of the tubules is obtained by specific marking of the antigen of surface antigen CD31 (PECAM-1), which is expressed by the endothelial cells.
The test is validated by staining the tubules and verification of the inhibitory and activating action of two pharmacological compounds known to act on angiogenesis. The action on angiogenesis of the active ingredients tested was evaluated by quantitative image analysis.
The cells were cultured in 24-well plates in an incubator at 37° C. under a humid atmosphere containing 5% CO2.
The specific culture medium was eliminated and the cells were placed under different experimental conditions:
Negative control: suramin, agent inhibiting formation of tubules—final concentration: 20 μM;
Positive control: VEGF, activating agent of angiogenesis—final concentration: 2 ng/ml;
Composition for the face: Since this composition of essential oils is not miscible in the culture medium, it was dissolved in absolute ethanol and tested at three concentrations (the non-cytotoxic character of which had been verified in advance by 24-hour contact with normal human fibroblasts): 0.005%-0.01%-0.05% (v/v); and
Solvent control: since ethanol could have effects on angiogenesis, it was tested at the final concentration required for dissolving the essential oils composition: 0.1% (v/v).
Each condition was implemented in duplicate. Microscopic observation of the cells was performed daily to monitor formation of tubules as shown in the photograph of FIG. 2.
The media were eliminated and the conditions were renewed on the 3rd, 6th and 9th day of the experiment. On the 10th day, the cells were fixed and stained: after rinsing in the PBS buffer, the cells were fixed in a 70% ethanol solution cooled at −20° C. for 30 minutes. The cells were then incubated for 1 hour at 37° C. with the human anti-CD-31 ZIS-3090 antibody (TCS CellWorks). […]
Evaluation of the angiogenic power of the compound tested was quantified by image analysis (Olympus IX70 Auto Analysis System) by measuring the length of the tubules developed (in μm) and the number of junctions established within the anastomosed network. […]

In the case of VEGF, where the note is “VEGF 2 ng/ml, day 10”, the “number of junctions augmented by a factor compared to the control” value was 1.7 and the “stimulator effect on the length of the tubular network compared to the control” value is on record as 54%.
As for `Cc1ccc(C(=O)Nc2ccc(S(=O)(=O)O)c3cc(S(=O)(=O)O)cc(S(=O)(=O)O)c23)cc1NC(=O)c1cccc(NC(=O)Nc2cccc(C(=O)Nc3cc(C(=O)Nc4ccc(S(=O)(=O)O)c5cc(S(=O)(=O)O)cc(S(=O)(=O)O)c45)ccc3C)c2)c1` [suramin], the inhibition at 20 µM (Homo sapiens, Endothelial cell, 240 h, read-out: inhibition of the length of the tubular network compared to the control) is 49%. Also, the “number of junctions diminished by a factor compared to the control” value (suramin 20 μM, day 10) worked out at 5.7.
